Target: Huh7 (Homo sapiens)
Assay: Cytotoxicity against human Huh7 cell line containing HCV genotype 1b replicon

Work on `O=C(O)[C@@H]1CCCN1S(=O)(=O)c1cc(Cl)c(Cl)c(Cl)c1O` [(S)-1-(3,4,5-trichloro-2-hydroxyphenylsulfonyl)pyrrolidine-2-carboxylic acid] yielded an IC50 greater than 100 µM.
